Laboratory results from PMC6979384, “Characterization of the plant homeodomain (PHD) reader family for their histone tail interactions” (Epigenetics & Chromatin, 2020).
Values belong to the substance of their own block, whether it stands above or below them.

Assays:
Assay in all cases: Histone peptide microarray
Assay type in all cases: binding, human
Details in all cases: arrays performed twice, n of 4
AIRE (PP) = tested on: AIRE (PP)
Outline: (§1)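 A peptide microarray holding 293 synthetic histone peptides with individual or combinatorial modifications was probed with each GST-PHD protein at 0.5 μM. Values represent mean intensity (±SD) from four replicates.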

BAZ2B = tested on: BAZ2B
Outline: as §1

BPTF (PB) = tested on: BPTF (PB)
Outline: as §1

CHD4 (PPCC) = tested on: CHD4 (PPCC)
Outline: as §1

CHD5 (PCC) = tested on: CHD5 (PCC)
Outline: as §1

CHD5 (PPCC) = tested on: CHD5 (PPCC)
Outline: as §1

DIDO1 = tested on: DIDO1
Outline: as §1

DPF2 (PPC2W2) = tested on: DPF2 (PPC2W2)
Outline: as §1

ING1 = tested on: ING1
Outline: as §1

ING2 = tested on: ING2
Outline: as §1

ING3 = tested on: ING3
Outline: as §1

ING4 = tested on: ING4
Outline: as §1

ING5 = tested on: ING5
Outline: as §1

KDM4C (TTP) = tested on: KDM4C (TTP)
Outline: as §1

KDM5A (1) = tested on: KDM5A (1)
Outline: as §1

KDM5A (3) = tested on: KDM5A (3)
Outline: as §1

KDM5B (1) = tested on: KDM5B (1)
Outline: as §1

KDM5B (3) = tested on: KDM5B (3)
Outline: as §1

KDM7A = tested on: KDM7A
Outline: as §1

MLL5 = tested on: MLL5
Outline: as §1

MORC3 (CW) = tested on: MORC3 (CW)
Outline: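 Purified PHD finger domains fused to GST are screened against 293 synthetic histone peptides bearing one or several post-translational modifications. The protein is used at 0.5 μM, and the signal from four replicate arrays is averaged, with standard deviation given.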

PHF13 = tested on: PHF13
Outline: as §1

PHF21A = tested on: PHF21A
Outline: as §1

PHF23 = tested on: PHF23
Outline: as §1

PHF2 = tested on: PHF2
Outline: as §1

PHF8 = tested on: PHF8
Outline: as §1

PHRF1 (RP) = tested on: PHRF1 (RP)
Outline: as §1

RAG2 = tested on: RAG2
Outline: as §1

SP140L = tested on: SP140L
Outline: as §1

TAF3 = tested on: TAF3
Outline: as §1

TRIM66 (PB) = tested on: TRIM66 (PB)
Outline: as §1

- Array Heatmap value (peptide array binding signal) (AIRE (PP); AIRE (PP), GST-tagged): 0.4385
- Array Heatmap value (peptide array binding signal) (BAZ2B; BAZ2B, GST-tagged): 0.4726
- Array Heatmap value (peptide array binding signal) (BPTF (PB); BPTF (PB), GST-tagged): 0.352
- Array Heatmap value (peptide array binding signal) (CHD4 (PPCC); CHD4 (PPCC), GST-tagged): 0.5871
- Array Heatmap value (peptide array binding signal) (CHD5 (PCC); CHD5 (PCC), GST-tagged): 0.7751
- Array Heatmap value (peptide array binding signal) (CHD5 (PPCC); CHD5 (PPCC), GST-tagged): 0.5621
- Array Heatmap value (peptide array binding signal) (DIDO1; DIDO1, GST-tagged): 0.7273
- Array Heatmap value (peptide array binding signal) (DPF2 (PPC2W2); DPF2 (PPC2W2), GST-tagged): 0.6719
- Array Heatmap value (peptide array binding signal) (ING1; ING1, GST-tagged): 0.5613
- Array Heatmap value (peptide array binding signal) (ING2; ING2, GST-tagged): 0.6072
- Array Heatmap value (peptide array binding signal) (ING3; ING3, GST-tagged): 0.4991
- Array Heatmap value (peptide array binding signal) (ING4; ING4, GST-tagged): 0.4583
- Array Heatmap value (peptide array binding signal) (ING5; ING5, GST-tagged): 0.3678
- Array Heatmap value (peptide array binding signal) (KDM4C (TTP); KDM4C (TTP), GST-tagged): 0.4879
- Array Heatmap value (peptide array binding signal) (KDM5A (1); KDM5A (1), GST-tagged): 0.4698
- Array Heatmap value (peptide array binding signal) (KDM5A (3); KDM5A (3), GST-tagged): 0.4295
- Array Heatmap value (peptide array binding signal) (KDM5B (1); KDM5B (1), GST-tagged): 0.6524
- Array Heatmap value (peptide array binding signal) (KDM5B (3); KDM5B (3), GST-tagged): 0.4778
- Array Heatmap value (peptide array binding signal) (KDM7A; KDM7A, GST-tagged): 0.3622
- Array Heatmap value (peptide array binding signal) (MLL5; MLL5, GST-tagged): 0.5803
- Array Heatmap value (peptide array binding signal) (MORC3 (CW); MORC3 (CW), GST-tagged): 0.351
- Array Heatmap value (peptide array binding signal) (PHF13; PHF13, GST-tagged): 0.6462
- Array Heatmap value (peptide array binding signal) (PHF21A; PHF21A, GST-tagged): 0.4681
- Array Heatmap value (peptide array binding signal) (PHF23; PHF23, GST-tagged): 0.5628
- Array Heatmap value (peptide array binding signal) (PHF2; PHF2, GST-tagged): 0.5258
- Array Heatmap value (peptide array binding signal) (PHF8; PHF8, GST-tagged): 0.3546
- Array Heatmap value (peptide array binding signal) (PHRF1 (RP); PHRF1 (RP), GST-tagged): 0.4375
- Array Heatmap value (peptide array binding signal) (RAG2; RAG2, GST-tagged): 0.2418
- Array Heatmap value (peptide array binding signal) (SP140L; SP140L, GST-tagged): 0.3526
- Array Heatmap value (peptide array binding signal) (TAF3; TAF3, GST-tagged): 0.2673
- Array Heatmap value (peptide array binding signal) (TRIM66 (PB); TRIM66 (PB), GST-tagged): 0.6062
Substance: H3K36me3 (21-44): H3 21-44

Substance: H3R2me1 + K4me3 + K9ac + K14ac + K18ac: H3 1-20
- Array Heatmap signal, AIRE (PP) (AIRE (PP); GST-tagged AIRE (PP), histone peptide array): 0.4342
- Array Heatmap signal, BAZ2B (BAZ2B; GST-tagged BAZ2B, histone peptide array): 0.5242
- Array Heatmap signal, BPTF (PB) (BPTF (PB); GST-tagged BPTF (PB = PHD + Bromodomain), histone peptide array): 0.497
- Array Heatmap signal, CHD4 (PPCC) (CHD4 (PPCC); GST-tagged CHD4 (PPCC = Dual PHD + Dual Chromodomain), histone peptide array): 0.5338
- Array Heatmap signal, CHD5 (PCC) (CHD5 (PCC); GST-tagged CHD5 (PCC = PHD + Dual Chromodomain), histone peptide array): 0.7637
- Array Heatmap signal, CHD5 (PPCC) (CHD5 (PPCC); GST-tagged CHD5 (PPCC = Dual PHD + Dual Chromodomain), histone peptide array): 0.5534
- Array Heatmap signal, DIDO1 (DIDO1; GST-tagged DIDO1, histone peptide array): 0.9369
- Array Heatmap signal, DPF2 (PPC2W2) (DPF2 (PPC2W2); GST-tagged DPF2 (PPC2W2 = Dual PHD + C2W2-type Zn-finger), histone peptide array): 0.7016
- Array Heatmap signal, ING1 (ING1; GST-tagged ING1, histone peptide array): 0.6321
- Array Heatmap signal, ING2 (ING2; GST-tagged ING2, histone peptide array): 0.7542
- Array Heatmap signal, ING3 (ING3; GST-tagged ING3, histone peptide array): 0.5459
- Array Heatmap signal, ING4 (ING4; GST-tagged ING4, histone peptide array): 0.4735
- Array Heatmap signal, ING5 (ING5; GST-tagged ING5, histone peptide array): 0.3861
- Array Heatmap signal, KDM4C (TTP) (KDM4C (TTP); GST-tagged KDM4C (TTP = Tandem Tudor domain + PHD), histone peptide array): 0.6022
- Array Heatmap signal, KDM5A (1) (KDM5A (1); GST-tagged KDM5A (1), histone peptide array): 0.4772
- Array Heatmap signal, KDM5A (3) (KDM5A (3); GST-tagged KDM5A (3), histone peptide array): 1
- Array Heatmap signal, KDM5B (1) (KDM5B (1); GST-tagged KDM5B (1), histone peptide array): 0.6999
- Array Heatmap signal, KDM5B (3) (KDM5B (3); GST-tagged KDM5B (3), histone peptide array): 0.6033
- Array Heatmap signal, KDM7A (KDM7A; GST-tagged KDM7A, histone peptide array): 0.4977
- Array Heatmap signal, MLL5 (MLL5; GST-tagged MLL5, histone peptide array): 0.7798
- Array Heatmap signal, MORC3 (CW) (MORC3 (CW); GST-tagged MORC3 (CW = CW-type Zn-finger), histone peptide array): 0.7963
- Array Heatmap signal, PHF13 (PHF13; GST-tagged PHF13, histone peptide array): 0.6575
- Array Heatmap signal, PHF21A (PHF21A; GST-tagged PHF21A, histone peptide array): 0.4576
- Array Heatmap signal, PHF23 (PHF23; GST-tagged PHF23, histone peptide array): 0.7743
- Array Heatmap signal, PHF2 (PHF2; GST-tagged PHF2, histone peptide array): 0.7659
- Array Heatmap signal, PHF8 (PHF8; GST-tagged PHF8, histone peptide array): 0.711
- Array Heatmap signal, PHRF1 (RP) (PHRF1 (RP); GST-tagged PHRF1 (RP), histone peptide array): 0.4594
- Array Heatmap signal, RAG2 (RAG2; GST-tagged RAG2, histone peptide array): 0.5848
- Array Heatmap signal, SP140L (SP140L; GST-tagged SP140L, histone peptide array): 0.3363
- Array Heatmap signal, TAF3 (TAF3; GST-tagged TAF3, histone peptide array): 0.3972
- Array Heatmap signal, TRIM66 (PB) (TRIM66 (PB); GST-tagged TRIM66 (PB = PHD + Bromodomain), histone peptide array): 0.5379
